The target in this experiment is T1, AR (Homo sapiens, UniProt P10275).
T1 construct: endogenous in cells; host or cells: VCaP cells
T1 sequence (P10275 1-920): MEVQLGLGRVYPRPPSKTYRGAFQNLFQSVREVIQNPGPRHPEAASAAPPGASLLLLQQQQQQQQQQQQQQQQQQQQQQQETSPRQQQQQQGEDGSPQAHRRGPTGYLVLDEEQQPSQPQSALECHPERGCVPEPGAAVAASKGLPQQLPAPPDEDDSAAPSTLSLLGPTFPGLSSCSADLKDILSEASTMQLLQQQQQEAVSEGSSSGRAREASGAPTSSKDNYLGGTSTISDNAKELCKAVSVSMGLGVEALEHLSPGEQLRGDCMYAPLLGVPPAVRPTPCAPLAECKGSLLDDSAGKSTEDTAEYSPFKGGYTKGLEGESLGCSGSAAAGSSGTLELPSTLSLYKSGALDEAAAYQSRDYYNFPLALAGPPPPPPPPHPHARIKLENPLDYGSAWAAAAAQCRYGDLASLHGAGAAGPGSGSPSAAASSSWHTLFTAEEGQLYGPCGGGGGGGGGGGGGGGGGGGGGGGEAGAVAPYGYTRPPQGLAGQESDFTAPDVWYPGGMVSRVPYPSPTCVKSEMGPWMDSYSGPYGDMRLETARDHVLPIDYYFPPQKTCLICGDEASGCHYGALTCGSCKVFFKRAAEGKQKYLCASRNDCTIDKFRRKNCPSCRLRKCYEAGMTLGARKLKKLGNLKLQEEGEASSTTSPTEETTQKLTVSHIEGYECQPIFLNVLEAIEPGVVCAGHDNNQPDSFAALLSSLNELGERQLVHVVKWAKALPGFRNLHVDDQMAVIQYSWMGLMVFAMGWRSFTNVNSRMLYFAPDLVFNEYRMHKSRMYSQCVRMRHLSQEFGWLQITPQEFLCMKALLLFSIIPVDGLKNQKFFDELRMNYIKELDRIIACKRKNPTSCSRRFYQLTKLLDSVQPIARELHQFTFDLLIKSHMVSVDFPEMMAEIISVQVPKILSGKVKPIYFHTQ
The experiment in a line: VCAP AR Degradation Assay. The class given is cell-based. As to conditions: for Y (AR degradation efficiency, % of DMSO control): class symbols *; for DC50: class symbols A-C, read-out: DC50. The procedure:
VCAP AR Degradation Assay. Test compounds were pre-dispensed into a Corning CellBind 96-well clear bottom plate (Cat #3300) using an acoustic dispenser to make a 10-point concentration series at 1:3 dilution for each compound. The final top concentration of each compound was 5 μM. DMSO at a final concentration of 0.1% was used as a control. VCaP cells cultured in DMEM with 8% fetal bovine serum (FBS) were seeded at 50K cells per well in a 200 μL volume into the compound plate and incubated at 37° C. in a CO2 incubator for 24 h. The medium was carefully removed from the cells and the plate was placed on ice. One hundred μL of ice-cold 1x cell lysis buffer from Cell Signaling Technologies (Cat #9803) was added to each well of the cells and the plate was incubated at 4° C. on a shaker for 1 h. Fifteen μL of cell lysate was used for AR ELISA detection using a PathScan Total Sandwich AR ELISA kit (Cell Signaling Technology, Cat #12580). AR levels in compound-treated wells were normalized to that of DMSO control and expressed as percent of control (PoC) (y). A Four Parameter Logistic Model (Sigmoidal Dose-Response Model) was used to determine the compound's DC50, and EC50, using the following equation:
[formula] • A=YMin (lowest AR level normalized to DMSO control in response to compound treatment, as determined by curve fit) • B=YMax (maximum AR level as determined by curve fit) • C=EC50 • D=Hill Slope • x=compound concentration • EC50=the concentration of compound when y=(YMax−YMin)/2 • DC50=the concentration of the compound when y=50% of DMSO control (50% AR degradation) • y=AR protein level normalized to DMSO control
The lowest measured AR level normalized to DMSO control in response to compound treatment, termed Y value, was used to characterize the compound-mediated AR degradation efficiency.

The structures appear in SMILES notation. Counter-ions that a name gives are not always drawn.

One may read the DC50 as the concentration giving 50% degradation. As to `CCc1cc(N2C(=S)N(c3ccc(C#N)c(C(F)(F)F)c3)C(=O)C2(C)C)ccc1OCCN1CCN(CC(=O)Nc2cc(Cl)cc(NC3CCC(=O)NC3=O)c2)CC1` (stereo not shown) [Example 40, hydrochloride], the “Y (AR degradation efficiency, % of DMSO control)” value is listed as “* (0<Y<=25%)” and the 50% degradation concentration (DC50) is < 100 nM.

`CCc1cc(N2C(=S)N(c3ccc(C#N)c(C(F)(F)F)c3)C(=O)C2(C)C)ccc1OCCN1CCN(CC(=O)Nc2cc(NC3CCC(=O)NC3=O)ccc2Cl)CC1` (stereo not shown) [Example 41, hydrochloride]: the “Y (AR degradation efficiency, % of DMSO control)” value is recorded as “* (0<Y<=25%)” and the DC50 is < 100 nM.

As to `CCc1cc(N2C(=S)N(c3ccc(C#N)c(C(F)(F)F)c3)C(=O)C2(C)C)ccc1OCCN1CCN(CC(=O)Nc2cccc(NC3CCC(=O)NC3=O)c2)C[C@@H]1C` (stereo partly shown) [Example 43, hydrochloride], the “Y (AR degradation efficiency, % of DMSO control)” value is “* (0<Y<=25%)” and the DC50 was < 100 nM.

With `CCc1cc(N2C(=S)N(c3ccc(C#N)c(C(F)(F)F)c3)C(=O)C2(C)C)ccc1OCCN1CCN(CC(=O)Nc2cccc(NC3CCC(=O)NC3=O)c2)C[C@H]1C` (stereo partly shown) [Example 44], the “Y (AR degradation efficiency, % of DMSO control)” value is recorded as “* (0<Y<=25%)” and the DC50 is < 100 nM.

As for `CCc1cc(N2C(=S)N(c3ccc(C#N)c(C(F)(F)F)c3)C(=O)C2(C)C)ccc1OCCN1CCN(CC(=O)Nc2cccc(NC3CCC(=O)NC3=O)c2)[C@H](C)C1` (stereo partly shown) [Example 45], the “Y (AR degradation efficiency, % of DMSO control)” value is given as “* (0<Y<=25%)” and the DC50 is < 100 nM.

With `CCc1cc(N2C(=S)N(c3ccc(C#N)c(C(F)(F)F)c3)C(=O)C2(C)C)ccc1OCCN1CCN(CC(=O)Nc2cccc(NC3CCC(=O)NC3=O)c2)C[C@@H]1CO` (stereo partly shown) [Example 48], the “Y (AR degradation efficiency, % of DMSO control)” value is given as “* (0<Y<=25%)” and the DC50 is < 100 nM.

`CCc1cc(N2C(=S)N(c3ccc(C#N)c(C(F)(F)F)c3)C(=O)C2(C)C)ccc1OCCN1CCN(CC(=O)Nc2cccc(NC3CCC(=O)NC3=O)c2)C[C@H]1CO` (stereo partly shown) [Example 49]: the “Y (AR degradation efficiency, % of DMSO control)” value is on record as “** (25%<Y<=35%)” and the half-maximal degradation concentration (DC50) was < 100 nM.

Turning to `CCc1cc(N2C(=S)N(c3ccc(C#N)c(C(F)(F)F)c3)C(=O)C2(C)C)ccc1OCCN1CCN(CC(=O)Nc2cccc(NC3CCC(=O)NC3=O)c2)[C@H](CO)C1` (stereo partly shown) [Example 50], the “Y (AR degradation efficiency, % of DMSO control)” value is recorded as “*** (35%<Y<50%)” and the DC50 lay in the range of 500 to 1000 nM.

Take `CCc1cc(N2C(=S)N(c3ccc(C#N)c(C(F)(F)F)c3)C(=O)C2(C)C)ccc1OCCN1CCN(CC(=O)Nc2cccc(NC3CCC(=O)NC3=O)c2)[C@@H](CO)C1` (stereo partly shown) [Example 51]: the “Y (AR degradation efficiency, % of DMSO control)” value is given as “*** (35%<Y<50%)” and the DC50 lay within 100 to 500 nM.

In the case of `CC(C)c1cc(N2C(=S)N(c3cnc(C#N)c(C(F)(F)F)c3)C(=O)C2(C)C)ccc1OCCN1CCN(CC(=O)Nc2cccc(NC3CCC(=O)NC3=O)c2)CC1` (stereo not shown) [Example 53, 2-(4-(2-(4-(3-(6-cyano-5-(trifluoromethyl)pyridin-3-yl)-5,5-dimethyl-4-oxo-2-thioxoimidazolidin-1-yl)-2-isopropylphenoxy)ethyl)piperazin-1-yl)-N-(3-(2,6-dioxopiperidin-3-ylamino)phenyl)acetamide], the “Y (AR degradation efficiency, % of DMSO control)” value is listed as “* (0<Y<=25%)” and the DC50 was < 100 nM.

In the case of `CCc1cc(N2C(=S)N(c3cnc(C#N)c(C(F)(F)F)c3)C(=O)C23CCC3)ccc1OCCN1CCN(CC(=O)Nc2cccc(NC3CCC(=O)NC3=O)c2)CC1` (stereo not shown) [Example 56, 2-(4-(2-(4-(7-(6-cyano-5-(trifluoromethyl)pyridin-3-yl)-8-oxo-6-thioxo-5,7-diazaspiro[3.4]octan-5-yl)-2-ethylphenoxy)ethyl)piperazin-1-yl)-N-(3-(2,6-dioxopiperidin-3-ylamino)phenyl)acetamide], the “Y (AR degradation efficiency, % of DMSO control)” value was “* (0<Y<=25%)” and the DC50 was < 100 nM.

Turning to `CCc1cc(N2C(=S)N(c3ccc(C#N)c(C(F)(F)F)c3)C(=O)C2(C)C)ccc1OCCN1CCN([C@@H](C)C(=O)Nc2cccc(NC3CCC(=O)NC3=O)c2)CC1` (stereo partly drawn) [Example 57, (2S)-2-(4-(2-(4-(3-(4-cyano-3-(trifluoromethyl)phenyl)-5,5-dimethyl-4-oxo-2-thioxoimidazolidin-1-yl)-2-ethylphenoxy)ethyl)piperazin-1-yl)-N-(3-(2,6-dioxopiperidin-3-ylamino)phenyl)propanamide], the “Y (AR degradation efficiency, % of DMSO control)” value is “* (0<Y<=25%)” and the DC50 is < 100 nM.

As to `CCc1cc(N2C(=S)N(c3ccc(C#N)c(C(F)(F)F)c3)C(=O)C2(C)C)ccc1OCCN1CCN([C@H](C)C(=O)Nc2cccc(NC3CCC(=O)NC3=O)c2)CC1` (stereo partly drawn) [Example 58, (2R)-2-(4-(2-(4-(3-(4-cyano-3-(trifluoromethyl)phenyl)-5,5-dimethyl-4-oxo-2-thioxoimidazolidin-1-yl)-2-ethylphenoxy)ethyl)piperazin-1-yl)-N-(3-(2,6-dioxopiperidin-3-ylamino)phenyl)propanamide], the “Y (AR degradation efficiency, % of DMSO control)” value is “* (0<Y<=25%)” and the DC50 is < 100 nM.

`CC(F)(F)c1cc(N2C(=S)N(c3ccc(C#N)c(C(F)(F)F)c3)C(=O)C2(C)C)ccc1OCCN1CCN(CC(=O)Nc2cccc(NC3CCC(=O)NC3=O)c2)CC1` (stereo not shown) [Example 59, 2-(4-(2-(4-(3-(4-cyano-3-(trifluoromethyl)phenyl)-5,5-dimethyl-4-oxo-2-thioxoimidazolidin-1-yl)-2-(1,1-difluoroethyl)phenoxy)ethyl)piperazin-1-yl)-N-(3-(2,6-dioxopiperidin-3-ylamino)phenyl)acetamide]: the “Y (AR degradation efficiency, % of DMSO control)” value is recorded as “* (0<Y<=25%)” and the DC50 was < 100 nM.

With `CC(F)(F)c1cc(N2C(=S)N(c3cnc(C#N)c(C(F)(F)F)c3)C(=O)C2(C)C)ccc1OCCN1CCN(CC(=O)Nc2cccc(NC3CCC(=O)NC3=O)c2)CC1` (stereo not shown) [Example 60, 2-(4-(2-(4-(3-(6-cyano-5-(trifluoromethyl)pyridin-3-yl)-5,5-dimethyl-4-oxo-2-thioxoimidazolidin-1-yl)-2-(1,1-difluoroethyl)phenoxy)ethyl)piperazin-1-yl)-N-(3-(2,6-dioxopiperidin-3-ylamino)phenyl)acetamide], the “Y (AR degradation efficiency, % of DMSO control)” value is recorded as “* (0<Y<=25%)” and the DC50 was < 100 nM.

Regarding `CCc1cc(N2C(=S)N(c3ccc(C#N)c(C(F)(F)F)c3)C(=O)C2(C)C)ccc1OCCN1CCN(CC(=O)Nc2cc(F)cc(NC3CCC(=O)NC3=O)c2)CC1` (stereo not shown) [Example 61, 2-(4-(2-(4-(3-(4-cyano-3-(trifluoromethyl)phenyl)-5,5-dimethyl-4-oxo-2-thioxoimidazolidin-1-yl)-2-ethylphenoxy)ethyl)piperazin-1-yl)-N-(3-(2,6-dioxopiperidin-3-ylamino)-5-fluorophenyl)acetamide], the “Y (AR degradation efficiency, % of DMSO control)” value is reported as “* (0<Y<=25%)” and the DC50 is < 100 nM.

Consider `CC(F)(F)c1cc(N2C(=S)N(c3cnc(C#N)c(C(F)(F)F)c3)C(=O)C2(C)C)ccc1OCCN1CCN(CC(=O)Nc2cc(Cl)cc(NC3CCC(=O)NC3=O)c2)CC1` (stereo not shown) [Example 62, N-(3-chloro-5-(2,6-dioxopiperidin-3-ylamino)phenyl)-2-(4-(2-(4-(3-(6-cyano-5-(trifluoromethyl)pyridin-3-yl)-5,5-dimethyl-4-oxo-2-thioxoimidazolidin-1-yl)-2-(1,1-difluoroethyl)phenoxy)ethyl)piperazin-1-yl)acetamide], for which the “Y (AR degradation efficiency, % of DMSO control)” value is “* (0<Y<=25%)” and the DC50 was < 100 nM.

The record behind these values is US12404241B2 (Celgene Corporation, priority 2018, dated 2025).
